Tests used:
[1] = Viscosity measured using a Brookfield viscosmeter; format: physicochemical; details: monomer
Method: 1. Viscosity is measured using a Brookfield viscosmeter.
(§1) The modified Bis-GMA obtained in Example 2 and Bis-GMA were subjected to viscosity and water absorption tests.

[2] = Water absorption for a modified Bis-GMA monomer, Karl Fischer titration; format: physicochemical
Method: 2. Water absorption for a modified Bis-GMA monomer is measured according to Karl Fischer titration.
as §1

SMILES | Viscosity [1] [cp] | Water absorption [2] [mg/mm^3/week]
C=C(C)C(=O)OCC(O)COc1ccc(C(C)(C)c2ccc(OCC(O)COC(=O)C(=C)C)cc2)cc1 (stereo not shown) [Bis-GMA, 2,2-bis[4-(2-hydroxyl-3-methacryloyloxy)phenyl] propane] | 458400 | 35
C=C(C)C(=O)OCC(COc1ccc(C(C)(C)c2ccc(OCC(COC(=O)C(=C)C)O[Si](CC)(CC)CC)cc2)cc1)O[Si](CC)(CC)CC (stereo not shown) [Example 2] | 440 | 7.4

Reference: patent US20090215921A1, “MODIFIED DIMETHYLACRYLATE MONOMER, METHOD FOR PREPARING THE SAME, AND POLYMERIC DENTAL COMPOSITE” (priority 2008, published 2009)
